Where two headings read alike, the source gives them in different places.
Biological target: T1, human T1R3 receptor (Homo sapiens, UniProt Q7RTX0)
T1 construct: expressed in transfected cells
T1 sequence (Q7RTX0 21-852): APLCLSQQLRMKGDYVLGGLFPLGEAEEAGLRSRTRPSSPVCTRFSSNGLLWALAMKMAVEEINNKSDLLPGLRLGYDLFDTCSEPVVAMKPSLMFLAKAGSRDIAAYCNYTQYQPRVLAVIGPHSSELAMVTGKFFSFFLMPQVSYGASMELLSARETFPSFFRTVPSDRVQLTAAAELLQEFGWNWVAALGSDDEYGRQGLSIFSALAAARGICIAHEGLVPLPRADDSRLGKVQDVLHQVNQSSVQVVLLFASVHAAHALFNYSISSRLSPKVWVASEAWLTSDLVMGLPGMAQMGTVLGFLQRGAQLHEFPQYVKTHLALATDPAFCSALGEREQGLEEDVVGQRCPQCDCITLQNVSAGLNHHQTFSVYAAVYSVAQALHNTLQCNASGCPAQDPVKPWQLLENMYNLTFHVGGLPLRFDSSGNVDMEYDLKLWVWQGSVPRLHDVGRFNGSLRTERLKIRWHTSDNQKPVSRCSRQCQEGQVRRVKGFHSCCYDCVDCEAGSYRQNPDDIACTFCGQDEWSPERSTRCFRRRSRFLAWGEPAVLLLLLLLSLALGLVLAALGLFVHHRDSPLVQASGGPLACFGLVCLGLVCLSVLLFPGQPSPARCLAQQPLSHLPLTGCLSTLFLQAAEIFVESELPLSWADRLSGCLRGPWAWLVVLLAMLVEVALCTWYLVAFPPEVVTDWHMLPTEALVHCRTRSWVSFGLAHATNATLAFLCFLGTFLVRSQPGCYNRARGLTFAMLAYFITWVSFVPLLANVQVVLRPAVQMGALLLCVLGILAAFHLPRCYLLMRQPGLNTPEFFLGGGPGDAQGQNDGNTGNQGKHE
T1 sequence (Q8TE23 20-839 partner): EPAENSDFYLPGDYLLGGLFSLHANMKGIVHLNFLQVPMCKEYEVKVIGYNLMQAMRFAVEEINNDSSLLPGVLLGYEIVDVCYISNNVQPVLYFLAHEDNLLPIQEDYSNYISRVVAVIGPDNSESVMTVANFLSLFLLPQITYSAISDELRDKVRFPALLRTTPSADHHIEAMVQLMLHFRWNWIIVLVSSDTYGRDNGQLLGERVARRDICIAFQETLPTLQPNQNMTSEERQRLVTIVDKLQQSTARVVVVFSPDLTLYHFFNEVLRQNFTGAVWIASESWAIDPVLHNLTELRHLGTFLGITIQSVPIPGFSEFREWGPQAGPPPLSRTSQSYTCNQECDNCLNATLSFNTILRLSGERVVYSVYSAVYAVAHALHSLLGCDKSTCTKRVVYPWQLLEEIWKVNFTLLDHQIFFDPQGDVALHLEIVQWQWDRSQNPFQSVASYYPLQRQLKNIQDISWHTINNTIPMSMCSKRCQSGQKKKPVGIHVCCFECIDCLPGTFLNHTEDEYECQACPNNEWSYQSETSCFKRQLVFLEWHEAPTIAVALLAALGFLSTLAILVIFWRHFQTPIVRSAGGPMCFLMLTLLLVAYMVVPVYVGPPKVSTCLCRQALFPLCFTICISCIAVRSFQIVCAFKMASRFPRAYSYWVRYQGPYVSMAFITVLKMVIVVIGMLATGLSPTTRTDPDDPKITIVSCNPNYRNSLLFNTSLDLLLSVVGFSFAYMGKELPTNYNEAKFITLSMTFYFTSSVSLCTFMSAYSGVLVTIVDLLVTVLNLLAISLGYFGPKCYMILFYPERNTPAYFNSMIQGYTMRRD
Assay: sweet receptor inhibition assay (receptor activated with 2.5 mM sucralose)
Format: cell-based
Description: FIG. 1 is a bar graph showing human (h), mouse (m) and chimeric mouse/human (m/h) sweet receptors activated with 2.5 mM sucralose and assayed for inhibition by certain T1R3 inhibitors or controls, measured by DF/F in %.
Chimeric receptors of T1R3 contained the extracellular portion of human or mouse receptor and the transmembrane domain and C-terminal domain from mouse or human receptor: mh indicates the presence of the mouse extracellular domain and human transmembrane domain; hm indicates the presence of the human extracellular domain and mouse transmembrane domain.

CC(C)(Oc1ccc(Cl)cc1)C(=O)O [clofibric acid] gave an IC50 (read-out: IC50, block of the T1R3 receptor) of 28 µM and an IC50 (read-out: IC50 values, human T1R3 inhibitors) of 0.028 µM.

Source: patent US20150045610A1, “METHOD OF MODIFYING SPERMATOGENESIS, SPERMIOGENESIS AND/OR FERTILITY IN MAMMALS” (Monell Chemical Senses Center, priority 2012, published 2015)
